Assay [1] relates to peptide loaded HepG2 cells. Put plainly: CTL assay: peptide-stimulated PBMCs of naive HLA-A24+ donor co-cultured with peptide loaded HepG2 cells, flow cytometry (FIG. 4). Conditions: blank HepG2 cells as control. It counts as cell-based, human. As for the experimental part:
FIG. 4: Utilizing a healthy (naive) human HLA-A24+ donor, peripheral blood mononuclear cells (PBMCs) were stimulated with peptide epitopes in a cytokine cocktail to induce antigen specific CTL response. These stimulated PBMCs were then assayed by co-culturing peptide loaded targets for antigen specific response. Hep2G cells were used for peptide loading, and blank Hep2G cells used as control. Also used was HepG2 cells infected with Dengue (DV2) and Zika. Expanded PBMCs were assayed for both CD8/IFNg double expression by flow cytometry. All 4 peptide epitopes induced CD8+ IFNg expression to peptide loaded HepG2 cells in a peptide specific manner. […] FIG. 5: Transgenic A2 mice were immunized with 200 ng of NP-Dengue peptides. The spleen cells were isolated and then exposed to either Zika or Dengue infected cells. […] Acid stripping of the peptides makes the cells non-response.
In a further experiment, utilizing a healthy (naive) human HLA-A24+ donor, peripheral blood mononuclear cells (PBMCs) were stimulated with peptide epitopes in a cytokine cocktail to induce antigen specific CTL response. These stimulated PBMCs were then assayed by co-culturing peptide loaded targets for antigen specific response (FIG. 4). Hep2G cells were used for peptide loading, and blank Hep2G cells used as control. Also used was HepG2 cells infected with Dengue (DV2) and Zika. […]

Another assay has as its system peptide loaded T2 cells. Description: CTL assay: peptide-stimulated PBMCs of naive HLA-A2+ donor co-cultured with peptide loaded T2 cells, flow cytometry (FIG. 3A). It counts as cell-based, human. As for the experimental part: FIGS. 3A and 3B: (FIG. 3A) Utilizing a healthy (naive) human HLA-A2+ donor, peripheral blood mononuclear cells (PBMCs) were stimulated with peptide epitopes in a cytokine cocktail to induce antigen specific CTL response. These stimulated PBMCs were then assayed by co-culturing peptide loaded targets for antigen specific response. TAP-deficient cells (T2) were used for peptide loading, and blank T2 cells used as control. Expanded PBMCs were assayed for both CD107a degranulation and interferon gamma (IFN-g) markers by flow cytometry. All 6 peptide epitopes induced CD8+ CD107a and IFNg expression to peptide loaded T2 cells in a peptide specific manner. […] (FIG. 3B) Utilizing a healthy (naive) human HLA-A2+ donor, peripheral blood mononuclear cells (PBMCs) were stimulated with peptide epitopes in a cytokine cocktail to induce antigen specific CTL response. These stimulated PBMCs were then assayed by co-culturing with Hep2G infected cells (DV2/Zika). Uninfected HepG2 cells were used as control. Expanded PBMCs were assayed for both CD107a degranulation and interferon gamma (IFN-g) markers by flow cytometry.
In one experiment, utilizing a healthy (naive) human HLA-A2+ donor, peripheral blood mononuclear cells (PBMCs) were stimulated with peptide epitopes in a cytokine cocktail to induce antigen specific CTL response. […]
In general terms: In flow cytometry, cells or beads pass a laser one at a time.

In the case of “PMAAVGLLIVS (listed as Dengue virus) [SEQ ID NO: 2]”, in assay [1], the “CD8+ IFNg expression to peptide loaded HepG2 cells” value is given as “particular pronounced IFNg+ effect”. For the same sequence, the “IFNg+ effect” value with peptide loaded T2 cells is reported as “particular pronounced IFNg+ effect”.

Values taken from US12178867B2, “MHC class i associated peptides for prevention and treatment of multiple flavi virus” (priority 2018, dated 2024).
